# Experimental data as given in paper PMC8111499, “GW117: A novel serotonin (5‐HT2C) receptor antagonist and melatonin (MT1/MT2) receptor agonist with potential antidepressant‐like activity in rodents” (CNS Neuroscience & Therapeutics, 2021).
# Legend:
# [1] = tested on: rats; assay: Forced swimming test in rats; format: in vivo, Sprague Dawley (SD) rats; details: oral, 40 mg/kg
# Procedure: The forced swimming test (FST) was conducted as described earlier. ^30 Eighty naive rats were randomized into eight treatment groups (n = 9‐12/group). All rats received a single drug administration (p.o.). The procedure consisted of two sessions, to be specific, a pre‐test session and a test session. A cylindrical container (diameter, 20 cm; height, 40 cm; including 30 cm of water and kept at 25℃) was used. During the pre‐test phase, rats were required to perform forced swimming for 15 min. The test session was performed 24 h later, put the rats in the same cylindrical container for 5 min and immobility duration over 5 min recorded. […] Rats were considered immobile when they entered a floating posture, specifically, immobile, passive, and with their heads above water.
# [2] = tested on: mice; assay: Tail suspension test in mice; format: in vivo, ICR mice; details: oral, 10, 20 or 40 mg/kg, vs. vehicle
# Procedure: The tail suspension test (TST) was conducted as described earlier. ^28 , ^29 Eighty naive mice were randomly divided into eight treatment groups (n = 10/group). All mice received a single dose of the drug (p.o.). After 60 min of gavage administration, mice were suspended from the top of the apparatus (25 × 25 × 35 cm) using tape about 1 cm from the tail tip. The duration of immobility was recorded in the last 4 min for a total of 6 min. When mice are passively suspended immobile, they are judged to be stationary.
# [3] = tested on: CUS rats; assay: Novelty‐suppressed feeding test in the CUS model; format: in vivo; details: chronic, 10 mg/kg
# Procedure: In order to further examine the antidepressant effects of GW117, chronic unpredictable stress (CUS) model was utilized; the methods were as described before. ^29 , ^31 After 1 week of training, rats underwent sucrose training of 48 h. After training, a sucrose baseline test was performed. […] Gastric gavage was given 1 h before the stress (08:00–09:00). Except for the non‐stressed group, all rats were stimulated by a series of stressors. stress methods included the following: fast on food and water (24 h), moisture cage (150 g sawdust bedding in 200 ml water), overnight illumination, low‐intensity strobe illumination (100 flashes/min), forced swimming (5 min at 10℃), white noise (110 dB), tail pinch (1 cm from tail root, 6 min), 45℃ cage tilt, and restraint (1–2 h). Stressors need to be used continuously and randomly. Non‐stressed rats received free food and water, but were required to fast for 14 h before sucrose preference test. After 4 weeks of stress, the sucrose preference test (SPT) (on day 25), open field test (OFT) (on day 28), and novelty‐suppressed feeding (NSF) test (on day 29) were carried out. […]
# [4] = biological target: T1, MT1 receptor (Homo sapiens, UniProt P48039); assay: [35S]‐GTPγS binding assay, MT1; format: biochemical; details: [35S]‐GTPγS binding; read-out: maximal increase over basal binding (% Emax), MT1 receptor
# T1 construct: purchased Perkin‐Elmer ES‐620
# Procedure: (§1) This experiment was mentioned earlier. ^27 In short, HEK293 cell membrane stably expressing human 5‐HT2C receptors or rat hippocampal tissue membrane or MT1/MT2 receptors was re‐suspended in buffer (50 mmol/L Tris, 100 mmol/L NaCl, 5 mmol/L MgCl2·6H2O, 0.1 mmol/L EDTA‐Na2·6H2O, 0.2 mmol/L EGTA, pH 7.4) and incubated with the test compound (100 μM GDP, 0.2 nM [^35S]‐GTP, or [^3H]PIP) for 60 min at 28℃. At the end of the experiment, Whatman GF/C filters pre‐soaked with distilled water were used for rapid filtration followed by washing with 5 ml of ice‐cold Tris buffer. Determination of non‐specific binding in the presence of GTPγS and radioactivity was measured by liquid scintillation counting. Calculation of the concentration produces a half‐maximal effect (EC50) and the maximal increase above the baseline value.
# [5] = biological target: T2, MT2 receptor (Homo sapiens, UniProt P49286); assay: [35S]‐GTPγS binding assay, MT2; format: biochemical; details: [35S]‐GTPγS binding; read-out: maximal increase over basal binding (% Emax), MT2 receptor
# T2 construct: purchased Perkin‐Elmer ES‐621
# T2 sequence (P49286 1-362): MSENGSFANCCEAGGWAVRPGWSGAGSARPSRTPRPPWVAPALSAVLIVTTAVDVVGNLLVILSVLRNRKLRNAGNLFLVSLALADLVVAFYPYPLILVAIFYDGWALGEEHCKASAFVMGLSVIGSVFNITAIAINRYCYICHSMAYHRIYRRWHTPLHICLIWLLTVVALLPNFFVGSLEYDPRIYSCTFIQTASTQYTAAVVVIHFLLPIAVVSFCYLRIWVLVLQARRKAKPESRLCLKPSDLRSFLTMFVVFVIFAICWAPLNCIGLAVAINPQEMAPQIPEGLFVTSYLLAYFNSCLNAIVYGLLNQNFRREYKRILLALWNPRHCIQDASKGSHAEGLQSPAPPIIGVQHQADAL
# Procedure: as §1
# [6] = biological target: T3, 5‐HT2C receptor (Rattus norvegicus, UniProt P08909); assay: 5‐HT2C receptor binding assay ([3H]‐LSD competition); details: mean ± SEM, three independent experiments
# T3 construct: 5‐HT2C receptor membrane protein was extracted from rat hippocampus and a stably transfected HEK293 cell line; from tissue; host or cells: rat hippocampus
# T3 sequence (P08909 33-460): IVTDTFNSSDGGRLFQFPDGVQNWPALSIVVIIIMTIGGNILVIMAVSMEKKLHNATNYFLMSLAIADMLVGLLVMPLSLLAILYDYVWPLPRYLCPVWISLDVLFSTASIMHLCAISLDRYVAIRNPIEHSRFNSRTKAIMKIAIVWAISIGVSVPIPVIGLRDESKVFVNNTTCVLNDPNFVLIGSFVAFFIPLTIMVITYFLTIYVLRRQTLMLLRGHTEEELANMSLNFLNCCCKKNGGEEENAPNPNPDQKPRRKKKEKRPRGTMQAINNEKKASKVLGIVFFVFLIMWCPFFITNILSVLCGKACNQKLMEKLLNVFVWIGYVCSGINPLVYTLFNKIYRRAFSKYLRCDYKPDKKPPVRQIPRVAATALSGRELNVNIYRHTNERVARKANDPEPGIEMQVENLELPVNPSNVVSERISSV
# Procedure: Hippocampal membrane preparations were obtained using previously described methods. ^24 , ^25 , ^26 Briefly, rats were decapitated and their brains were rapidly removed. Next, the hippocampus was dissected and subsequently homogenized in 40 volumes of ice‐cold buffer (50 mM Tris‐HCl Buffer, pH 7.4) and then centrifuged at 40,000 × g at 4°C for 10 min. The particles were re‐suspended and centrifuged again. In order to remove endogenous monoamines, the final suspension was incubated at 37°C for 20 min and then centrifuged as usual. The final pellets were frozen at −80°C at once for up to 1 week.
# Human MT1/MT2 receptor membrane proteins were obtained from Perkin‐Elmer (ES‐620 [MT1] and ES‐621 [MT2]). The stably transfected 5‐HT2C receptor HEK293 cell line was prepared using a nucleus‐cytoplasm‐membrane preparation kit (Applagin Technologies Inc.). Briefly, cells were harvested at 4°C, 110 00 × g and centrifugation for 5 min. Homogenize pellets in the assay buffer (50 mM Tris‐HCl buffer containing 120 mM NaCl and 5 mM KCl, pH 7.4) and then centrifuged twice at 4°C, 36,000 × g for 15 min. […]
# Receptor membrane protein, 5‐HT2C (50 μl), was added to all the tubes. Non‐specific binding was determined by the presence of unlabeled 10 μM 5‐HT and pre‐reacted for 30 min. […] Finally, 1 ml of scintillation fluid was added and the radioactive intensity measured by liquid scintillation counting.
# [7] = tested on: mice; assay: Learned helplessness paradigm in mice; format: in vivo, ICR mice; details: sub‐chronic (4 days), 10 mg/kg ig., after inescapable shock training
# Procedure: For 4 consecutive days, mice were putted into the shuttle box device (40 × 10 × 13 cm), the device was splited into two compartments, and mice could free access. In the IS group, each mouse received 360 inescapable shocks (current intensity 0.30 mA, duration 2 s, 3‐13 s variable interval, about 1 h) over four consecutive training days. Animals in the NIS group underwent the same handling without receiving the foot shocks. 10 trials were conducted on mice to screen helpless, each of which includes conditioned stimulation period (3‐s lamp on), non‐conditioned stimulation period (3‐s lamp +shock), and interval period (without any stimulus, 25 s). […] The EF values were balanced for each group in the experiment. Using Graphic State software (Coulbourn Instruments Inc.,) recorded the number of escape failures and the latency to escape.
# [8] = design: method as in PMID 31657152; details: single dose; cited from earlier work
# T1 sequence (P48039 whole entry): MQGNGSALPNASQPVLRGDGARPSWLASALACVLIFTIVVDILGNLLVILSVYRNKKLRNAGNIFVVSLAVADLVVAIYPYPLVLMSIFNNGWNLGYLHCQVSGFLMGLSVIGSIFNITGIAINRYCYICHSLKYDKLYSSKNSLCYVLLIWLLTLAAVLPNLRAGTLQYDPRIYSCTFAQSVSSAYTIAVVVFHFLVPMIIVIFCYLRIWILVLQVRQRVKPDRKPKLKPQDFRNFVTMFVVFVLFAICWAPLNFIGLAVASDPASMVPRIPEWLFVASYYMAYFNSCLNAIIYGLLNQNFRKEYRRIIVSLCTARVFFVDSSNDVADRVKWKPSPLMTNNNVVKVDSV
smiles,measurement,setting,value
"COc1ccc2cccc(CCNC(C)=O)c2c1 [Agomelatine, reference compound]",immobility time in FST,[1],significantly decreased the immobility time
same,immobility time in TST,[2],had no effect on immobility time
same,feeding latency in NSF test,[3],not effective
same,Emax,[4],94 ± 7.34%
same,Emax,[5],101 ± 4.56%
same,Ki,[6],0.64 ± 0.25 nM
"CNCCC(Oc1ccc(C(F)(F)F)cc1)c1ccccc1 (stereo not drawn) [Fluoxetine, reference compound]",deficit of avoidance behavior (escape latency and number of escape failures),[7],significantly reversed the deficit of avoidance behavior
CNC1(c2ccccc2Cl)CCCCC1=O (stereo not drawn) [ketamine],duration of rapid antidepressant response,[8],at least three
same,mean onset time of rapid antidepressant response,[8],four
